These are literature values, as cited in publication PMC9829398 (Plant Biotechnology Journal, 2022).

One may read the IC50 as the point on the concentration scale where inhibition reaches its midpoint.

In series [1] the target is EGFR‐associated tyrosine kinase. Set-up: method as in Hsu et al., [1991]. The note with it: ref Hsu et al., [1991]; cited from earlier work.
A further series relates to Aurora A. The following applies: read-out: IC50 for Aurora A; ref D'Alise et al., [2008]; cited from earlier work.
In a further series the test system is Aurora B. The following applies: read-out: IC50 for Aurora B; ref D'Alise et al., [2008]; cited from earlier work.
In a further series the test system is Aurora C. The note with it: read-out: IC50 for Aurora C; ref D'Alise et al., [2008]; cited from earlier work.

As to `O=C(O)c1cc(N(Cc2ccccc2O)Cc2cc(O)ccc2O)ccc1O` [Lavendustin A], the “IC50 for EGFR-associated tyrosine kinase” value in series [1] was “Lavendustin A (RG‐14355), isolated from Streptomyces Griseolavendus, is a potent, specific and ATP‐competitive inhibitor of tyrosine kinase, with an IC50 of 11 ng/mL for EGFR‐associated tyrosine kinase (Hsu et al., [1991])”.

On to `c1nc2nc(Nc3ccc(N4CCOCC4)cc3)nc(NC3CCCCC3)c2[nH]1` [Reversine], for which the IC50 is […] in the series on Aurora A, […] with Aurora B and […] with Aurora C.
